Measurements reported in article PMC7015960, “Effect of rifampin and itraconazole on the pharmacokinetics of zanubrutinib (a Bruton's tyrosine kinase inhibitor) in Asian and non-Asian healthy subjects” (Cancer Chemotherapy and Pharmacology, 2019).
Where “and” joins values, the source holds several entries; their conditions need not be identical. Identical values can stand only once. Like-named read-outs stand apart in the source and are kept apart here.

Columns and labels:
[1] = cited from earlier work
[2] = Part A: single-dose PK of 320 mg zanubrutinib alone and with steady-state rifampin (CYP3A induction) in healthy subjects; assay type: in vivo, human; conditions: for CL/F / AUC(0-inf) / Cmax / half-life / Vd/F: geometric mean (CV%); for AUC(0-inf) / Cmax / half-life / Vd/F / Tmax: both sexes, human, plasma; for Vd/F: read-out: Vz/F; for Tmax: median (min–max)
Protocol: (§1) This was an open-label, parallel-group, fixed-sequence study in healthy male and female subjects conducted in two parts, Part A and Part B. Part A investigated the effect of CYP3A induction by steady-state rifampin on the single-dose PK of 320 mg zanubrutinib, and Part B investigated the effect of CYP3A inhibition by steady-state itraconazole on the single-dose PK of 20 mg zanubrutinib.
(§2) In Part A, participants received a single oral dose of zanubrutinib (320 mg) in the fasted state on Day 1 and Day 10. Oral rifampin (600 mg/day, Rifampin, VersaPharm Inc., Marietta, GA, USA) was administered once daily in the fasted state on Days 3 through 11. In Part B, participants received a single oral dose of zanubrutinib (20 mg) in the fasted state on Day 1 and Day 6. Oral itraconazole (200 mg/day, Sporanox® capsules, Janssen Pharmaceuticals, Titusville, NJ, USA) was administered once-daily approximately 30 min after completing a meal on Days 3, 4, 5, and 7, and in the fasted state on Day 6.
(§3) Serial blood samples were collected with zanubrutinib alone and when combined with rifampin or itraconazole for the measurement of zanubrutinib plasma concentrations. Plasma samples were collected at predose, 0.5, 1, 1.5, 2, 3, 4, 6, 8, 12, 24, 36, and 48 h postdose on Day 1 and Day 10 in Part A and on Day 1 and Day 6 in Part B.
(§4) Plasma concentrations of zanubrutinib were determined using validated high-performance liquid chromatography coupled with tandem mass spectrometry (HPLC–MS/MS) (Xenobiotic Laboratories, NJ, USA). Protein precipitation was utilized to extract the analyte and internal standard from human plasma containing dipotassium ethylenediaminetetraacetic acid (K2EDTA) as anticoagulant. The analytical method utilized a reversed-phase HPLC column (Supelco Ascentis Express C18 20 × 2.1 mm, 2.7 µm) with a gradient flow of 0.1% formic acid in water (Mobile Phase A) and methanol:acetonitrile (1:1) (Mobile Phase B) at a rate of 0.5 mL/min. The analyte and internal standard were detected using an AB Sciex API-4000 LC–MS/MS system equipped with a positive ESI ion detection.
(§5) The calibration range of zanubrutinib in the assay was 1.00 to 1000 ng/mL using a 50 μL aliquot of plasma, with the lower limit of quantification of 1.00 ng/mL.
(§6) Noncompartmental PK analysis was conducted using the Phoenix® WinNolin® software (Version 6.4). PK parameters were derived for zanubrutinib alone and in combination with rifampin or itraconazole, including area under the plasma concentration–time curve (AUC), maximum observed plasma concentration (Cmax), time of the maximum observed plasma concentration (tmax), apparent terminal elimination half-life (t1/2), apparent total oral clearance (CL/F), and apparent volume of distribution during the terminal elimination phase (Vz/F). Log-transformed area under the curve from time 0 extrapolated to time t (AUC0–t), area under the curve from time 0 extrapolated to infinite time (AUC0–∞), and Cmax of zanubrutinib were analyzed using a mixed model for each part of the study, including treatments as a fixed effect and subject as a random effect. Estimates of geometric mean ratios (GMRs) and the corresponding 90% confidence intervals (CIs) were derived for the comparisons of AUC0–∞, and Cmax as follows:
Part A: zanubrutinib coadministration with rifampin (test) versus zanubrutinib alone (reference),

[3] = Part B: single-dose PK of 20 mg zanubrutinib alone and with steady-state itraconazole (CYP3A inhibition) in healthy subjects; assay type: in vivo, human; conditions: for CL/F / AUC(0-inf) / Cmax / half-life / Vd/F: geometric mean (CV%); for AUC(0-inf) / Cmax / half-life / Vd/F / Tmax: both sexes, human, plasma; for Vd/F: read-out: Vz/F; for Tmax: median (min–max)
Protocol: as §1, §2, §3, §4, §5, §6
Part B: zanubrutinib coadministration with itraconazole (test) versus zanubrutinib alone (reference).

[4] = Safety and tolerability (TEAEs, laboratory, vital signs, QTcF) in healthy subjects, Parts A and B; assay type: in vivo, human
From the text: Treatment-emergent adverse events (TEAEs) are summarized by part, treatment, National Cancer Institute Common Terminology Criteria for Adverse Events (v4.03) grade, and relationship to study drugs (zanubrutinib, rifampin, and itraconazole). The frequency of TEAEs is summarized by part, treatment, and Medical Dictionary for Regulatory Activities (MedDRA) system organ class (SOC) and preferred term. The summary and frequency TEAE tables are presented for all causalities and for those TEAEs considered related to the study drugs.

[5] = cited from earlier work; remark: listed apart in the source
[6] = test system: cytochrome P450 3A (CYP3A); design: method as in unpublished data; conditions: human liver microsomes; ref unpublished data; cited from earlier work
[7] = 320 mg zanubrutinib with 600 mg rifampin vs alone
[8] = oral, 320 mg zanubrutinib + 600 mg rifampin QD, Day 10
[9] = oral, 320 mg, Asian subjects, Part A Day 1, 320 mg zanubrutinib alone
[10] = oral, 320 mg, Non-Asian subjects, Part A Day 1, 320 mg zanubrutinib alone
[11] = oral, Asian subjects, Part A Day 10, zanubrutinib + rifampicin
[12] = oral, Non-Asian subjects, Part A Day 10, zanubrutinib + rifampicin
[13] = oral, 320 mg zanubrutinib + 600 mg rifampin QD
[14] = oral, 320 mg zanubrutinib alone
[15] = zanubrutinib in combination with rifampin versus zanubrutinib alone
[16] = 20 mg zanubrutinib with 200 mg itraconazole vs alone
[17] = oral, 20 mg zanubrutinib + 200 mg itraconazole QD, Day 6
[18] = oral, 20 mg, Asian subjects, Part B Day 1, 20 mg zanubrutinib alone
[19] = oral, 20 mg, Non-Asian subjects, Part B Day 1, 20 mg zanubrutinib alone
[20] = oral, Asian subjects, Part B Day 6, zanubrutinib + itraconazole
[21] = oral, Non-Asian subjects, Part B Day 6, zanubrutinib + itraconazole
[22] = oral, 20 mg zanubrutinib + 200 mg itraconazole QD
[23] = zanubrutinib in combination with itraconazole versus zanubrutinib alone
[24] = patients with B-cell malignancies

Which “decrease in AUC with rifampin” value [1] does the source give for `CC#CC(=O)N1CCC[C@H]1c1nc(-c2ccc(C(=O)Nc3ccccn3)cc2)c2c(N)nccn12` [acalabrutinib] here?
Its value is 77%.

And the “increase in AUC with itraconazole” value [1]?
Its value is 5.1 fold.

With `C=CC(=O)N1CCC[C@@H](n2nc(-c3ccc(Oc4ccccc4)cc3)c3c(N)ncnc32)C1` [ibrutinib] as the compound, how does the “increase in AUC with ketoconazole” value [1] read?
The value was 24 fold.

What does the source list for `C=CC(=O)N1CCC([C@@H]2CCNc3c(C(N)=O)c(-c4ccc(Oc5ccccc5)cc4)nn32)CC1` [zanubrutinib, Zanubrutinib]?
CL/F ([2]; 320 mg zanubrutinib + 600 mg rifampin QD): 1249 L/h and 1249 (43) L/h; PK parameters, Asian versus non-Asian subjects ([2]; 320 mg zanubrutinib alone on Day 1 and with 600 mg rifampin on Day 10): comparable between Asian and non-Asian subjects; CL/F ([2]; 320 mg zanubrutinib alone): 93 L/h and 93 (36) L/h; decrease of AUC0–∞ on coadministration with rifampin [2, 7]: 13.5 fold; decrease of Cmax on coadministration with rifampin [2, 7]: 12.6 fold; AUC(0-inf) [2, 8]: 0.261 µg·h/mL; Cmax [2, 8]: 0.042 µg/mL; Cmax ([2]; oral, 320 mg, 320 mg zanubrutinib alone, Day 1): 0.532 µg/mL; AUC(0-inf) [2, 9]: 3.46 µg·h/mL; Cmax [2, 9]: 0.543 µg/mL; AUC(0-inf) [2, 10]: 3.41 µg·h/mL; Cmax [2, 10]: 0.525 µg/mL; AUC(0-inf) [2, 11]: 0.213 µg·h/mL; Cmax [2, 11]: 0.041 µg/mL; AUC(0-inf) [2, 12]: 0.293 µg·h/mL; Cmax [2, 12]: 0.043 µg/mL; half-life [2, 13]: 4.8 h; Vd/F [2, 13]: 8660 L; Tmax [2, 13]: 2 h; half-life [2, 14]: 6.8 h; Vd/F [2, 14]: 914 L; Tmax [2, 14]: 2 h; AUC(0-inf) ([2]; po, 320 mg, 320 mg zanubrutinib alone, single oral dose, fasted, Day 1): 3.52 µg·h/mL; AUC0–∞ geometric ratio of adjusted means (90% CI) [2, 15]: 7.4% and 7.4 (6.0, 9.1) %; Cmax geometric ratio of adjusted means (90% CI) [2, 15]: 7.9% and 7.9 (6.6, 9.5) %; CL/F ([3]; 20 mg zanubrutinib + 200 mg itraconazole QD): 29 (31) L/h; PK, Asian versus non-Asian subjects ([3]; 20 mg zanubrutinib alone on Day 1 and with 200 mg itraconazole on Day 6): comparable between Asian and non-Asian subjects; CL/F ([3]; 20 mg zanubrutinib alone): 109 (29) L/h; increase of AUC0–∞ on coadministration with itraconazole [3, 16]: 3.8 fold and < 4 fold; increase of Cmax on coadministration with itraconazole [3, 16]: 2.6 fold; AUC(0-inf) [3, 17]: 0.693 µg·h/mL; Cmax [3, 17]: 0.122 µg/mL; Cmax ([3]; oral, 20 mg, 20 mg zanubrutinib alone, Day 1): 0.048 µg/mL; AUC(0-inf) [3, 18]: 0.174 µg·h/mL; Cmax [3, 18]: 0.05 µg/mL; AUC(0-inf) [3, 19]: 0.192 µg·h/mL; Cmax [3, 19]: 0.046 µg/mL; AUC(0-inf) [3, 20]: 0.694 µg·h/mL; Cmax [3, 20]: 0.124 µg/mL; AUC(0-inf) [3, 21]: 0.693 µg·h/mL; Cmax [3, 21]: 0.12 µg/mL; half-life [3, 22]: 4.3 h; Vd/F [3, 22]: 178 L; Tmax [3, 22]: 2 h; Vd/F ([3]; oral, 20 mg zanubrutinib alone): 341 L; half-life ([3]; oral, 20 mg zanubrutinib alone, terminal phase may not be adequately characterized): 2.2 h; Tmax ([3]; oral, 20 mg zanubrutinib alone): 1.5 h; AUC(0-inf) ([3]; po, 20 mg, 20 mg zanubrutinib alone, single oral dose, fasted, Day 1): 0.184 µg·h/mL; AUC0–∞ geometric ratio of adjusted means (90% CI) [3, 23]: 378% and 378 (344, 415) %; Cmax geometric ratio of adjusted means (90% CI) [3, 23]: 257% and 257 (226, 291) %; overall incidence of TEAEs ([4]; both Part A and Part B): less than 30%; severity of TEAEs / SAEs / discontinuation ([4]; both parts, NCI CTCAE v4.03): no subject reported a TEAE higher than Grade 2 or an SAE, and no subject discontinued due to a TEAE; QTcF ([4]; during the study): No subject had a QTcF value > 450 ms or an increase from baseline in QTcF of > 60 ms; tolerability ([4]; single doses of 320 mg and 20 mg zanubrutinib alone or with 600 mg rifampin / 200 mg itraconazole, healthy subjects): well tolerated; mean half-life ([5]; patients with B-cell malignancies, PK generally assessed only for 8 h post-dose): 2 to 4 h; tolerability ([5]; patients with B-cell malignancies, total daily doses 40 to 320 mg): generally well tolerated; accumulation after repeated dosing [5, 24]: minimal accumulation; time of Cmax after oral dosing [5, 24]: approximately 2 h; dose dependence of exposure ([5]; total daily doses of 40–320 mg): increased in a dose-proportional manner; pathway of oxidative metabolism [6]: largely mediated through the cytochrome P450 3A (CYP3A) pathway
